Our source for the Residual activity values is paper PMC9030254, “Target Hopping from Protein Kinases to PXR: Identification of Small-Molecule Protein Kinase Inhibitors as Selective Modulators of Pregnane X Receptor from TüKIC Library” (Cells, 2022).

Common to all, as to assay: Kinase profiling
Type in all cases: biochemical

Test [1] has as its target T1, CDK6/CycD1 (Homo sapiens, UniProt Q00534).
T1 construct: purchased ProQinase (Freiburg, Germany)
On the procedure:
(§1) The analysis was performed by ProQinase (Freiburg, Germany).

The target of test [2] is T2, CK1gamma2 (Homo sapiens, UniProt P78368).
T2 construct: purchased ProQinase (Freiburg, Germany)
T2 sequence (P78368 whole entry): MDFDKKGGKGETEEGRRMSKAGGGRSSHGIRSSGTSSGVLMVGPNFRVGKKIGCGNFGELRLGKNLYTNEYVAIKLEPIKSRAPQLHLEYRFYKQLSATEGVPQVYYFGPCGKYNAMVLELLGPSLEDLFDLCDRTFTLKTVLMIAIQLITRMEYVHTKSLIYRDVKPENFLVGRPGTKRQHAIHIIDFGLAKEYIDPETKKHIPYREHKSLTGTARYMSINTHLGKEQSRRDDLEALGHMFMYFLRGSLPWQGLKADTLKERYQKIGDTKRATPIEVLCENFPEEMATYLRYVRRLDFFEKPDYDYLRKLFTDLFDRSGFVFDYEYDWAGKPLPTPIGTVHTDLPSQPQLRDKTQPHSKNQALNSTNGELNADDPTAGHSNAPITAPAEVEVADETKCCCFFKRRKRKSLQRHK
The procedure:
as §1

In test [3] the target is T3, DAPK3 (Homo sapiens, UniProt O43293).
T3 construct: purchased ProQinase (Freiburg, Germany)
T3 sequence (O43293 whole entry): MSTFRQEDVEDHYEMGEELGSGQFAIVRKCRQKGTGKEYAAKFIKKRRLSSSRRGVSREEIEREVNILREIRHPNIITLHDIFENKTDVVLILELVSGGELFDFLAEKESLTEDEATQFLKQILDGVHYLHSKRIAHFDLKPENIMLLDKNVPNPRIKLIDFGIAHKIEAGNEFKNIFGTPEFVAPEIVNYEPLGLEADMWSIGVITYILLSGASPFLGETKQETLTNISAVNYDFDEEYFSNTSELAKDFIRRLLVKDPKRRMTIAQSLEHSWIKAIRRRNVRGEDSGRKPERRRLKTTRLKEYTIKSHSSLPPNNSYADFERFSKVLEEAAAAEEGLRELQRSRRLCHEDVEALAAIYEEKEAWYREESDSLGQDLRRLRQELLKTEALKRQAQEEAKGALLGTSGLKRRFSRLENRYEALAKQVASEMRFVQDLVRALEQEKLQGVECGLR
The procedure:
as §1

The target of test [4] is T4, EPHB1 (Homo sapiens, UniProt P54762).
T4 construct: purchased ProQinase (Freiburg, Germany)
T4 sequence (P54762 18-984): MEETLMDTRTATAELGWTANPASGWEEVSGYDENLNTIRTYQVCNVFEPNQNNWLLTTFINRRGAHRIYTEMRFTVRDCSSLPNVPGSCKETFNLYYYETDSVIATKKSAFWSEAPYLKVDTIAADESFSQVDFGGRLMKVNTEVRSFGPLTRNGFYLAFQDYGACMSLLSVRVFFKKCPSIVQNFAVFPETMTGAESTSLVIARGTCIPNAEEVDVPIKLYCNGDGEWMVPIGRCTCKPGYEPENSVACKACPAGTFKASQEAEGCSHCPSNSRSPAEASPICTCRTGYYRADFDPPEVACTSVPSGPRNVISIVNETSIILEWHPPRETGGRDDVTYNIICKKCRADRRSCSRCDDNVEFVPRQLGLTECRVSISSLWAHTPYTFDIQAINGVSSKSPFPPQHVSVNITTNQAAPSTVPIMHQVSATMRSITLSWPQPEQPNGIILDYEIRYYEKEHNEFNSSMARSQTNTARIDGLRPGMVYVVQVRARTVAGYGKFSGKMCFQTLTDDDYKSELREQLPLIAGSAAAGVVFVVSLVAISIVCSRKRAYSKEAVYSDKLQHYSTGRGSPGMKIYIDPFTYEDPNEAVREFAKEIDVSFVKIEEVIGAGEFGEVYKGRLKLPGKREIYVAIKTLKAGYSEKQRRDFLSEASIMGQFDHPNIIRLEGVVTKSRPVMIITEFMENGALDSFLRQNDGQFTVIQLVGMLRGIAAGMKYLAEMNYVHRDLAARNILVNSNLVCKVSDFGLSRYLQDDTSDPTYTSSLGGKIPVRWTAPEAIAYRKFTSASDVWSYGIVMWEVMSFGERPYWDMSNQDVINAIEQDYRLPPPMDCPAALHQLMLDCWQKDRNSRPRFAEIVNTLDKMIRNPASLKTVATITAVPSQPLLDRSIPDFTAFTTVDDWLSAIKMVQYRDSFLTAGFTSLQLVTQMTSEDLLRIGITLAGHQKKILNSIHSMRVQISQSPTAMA
The procedure:
as §1

The target of test [5] is T5, ERBB4 (Homo sapiens, UniProt Q15303).
T5 construct: purchased ProQinase (Freiburg, Germany)
T5 sequence (Q15303 26-1308): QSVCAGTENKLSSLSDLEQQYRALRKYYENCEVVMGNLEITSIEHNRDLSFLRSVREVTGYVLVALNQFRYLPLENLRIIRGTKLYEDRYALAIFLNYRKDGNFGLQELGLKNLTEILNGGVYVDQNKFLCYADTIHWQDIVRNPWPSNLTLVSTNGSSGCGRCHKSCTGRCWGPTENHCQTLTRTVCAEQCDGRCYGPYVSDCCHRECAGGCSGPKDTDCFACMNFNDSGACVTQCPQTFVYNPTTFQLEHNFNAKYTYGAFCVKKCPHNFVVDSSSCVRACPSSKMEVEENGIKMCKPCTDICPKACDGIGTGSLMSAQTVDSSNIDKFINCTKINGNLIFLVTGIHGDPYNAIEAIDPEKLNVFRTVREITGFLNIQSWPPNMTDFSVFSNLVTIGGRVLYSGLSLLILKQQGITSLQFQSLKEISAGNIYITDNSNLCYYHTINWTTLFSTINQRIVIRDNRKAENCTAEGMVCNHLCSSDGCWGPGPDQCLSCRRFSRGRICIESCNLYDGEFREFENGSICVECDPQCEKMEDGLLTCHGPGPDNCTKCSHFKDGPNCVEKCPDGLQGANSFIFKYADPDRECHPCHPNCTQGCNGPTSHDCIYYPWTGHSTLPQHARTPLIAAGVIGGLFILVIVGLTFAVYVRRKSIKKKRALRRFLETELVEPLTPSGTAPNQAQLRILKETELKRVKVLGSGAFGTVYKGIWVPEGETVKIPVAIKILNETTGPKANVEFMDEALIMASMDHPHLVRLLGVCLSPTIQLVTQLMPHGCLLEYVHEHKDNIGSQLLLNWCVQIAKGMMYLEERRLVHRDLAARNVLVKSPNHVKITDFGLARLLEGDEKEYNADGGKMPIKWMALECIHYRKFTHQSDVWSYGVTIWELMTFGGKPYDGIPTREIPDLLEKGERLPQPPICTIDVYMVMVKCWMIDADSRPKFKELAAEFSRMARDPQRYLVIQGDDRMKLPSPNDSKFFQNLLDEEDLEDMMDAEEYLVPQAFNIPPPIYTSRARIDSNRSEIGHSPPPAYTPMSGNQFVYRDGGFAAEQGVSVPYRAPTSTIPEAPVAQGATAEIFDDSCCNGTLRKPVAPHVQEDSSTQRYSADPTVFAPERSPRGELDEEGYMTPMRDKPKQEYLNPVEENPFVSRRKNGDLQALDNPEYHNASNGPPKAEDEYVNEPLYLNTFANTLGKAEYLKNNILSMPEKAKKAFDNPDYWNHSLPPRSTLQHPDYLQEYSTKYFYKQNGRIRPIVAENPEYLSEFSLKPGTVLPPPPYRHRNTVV
The procedure:
as §1

In test [6] the target is T6, IKKepsilon (Homo sapiens, UniProt Q14164).
T6 construct: purchased ProQinase (Freiburg, Germany)
T6 sequence (Q14164 1-716): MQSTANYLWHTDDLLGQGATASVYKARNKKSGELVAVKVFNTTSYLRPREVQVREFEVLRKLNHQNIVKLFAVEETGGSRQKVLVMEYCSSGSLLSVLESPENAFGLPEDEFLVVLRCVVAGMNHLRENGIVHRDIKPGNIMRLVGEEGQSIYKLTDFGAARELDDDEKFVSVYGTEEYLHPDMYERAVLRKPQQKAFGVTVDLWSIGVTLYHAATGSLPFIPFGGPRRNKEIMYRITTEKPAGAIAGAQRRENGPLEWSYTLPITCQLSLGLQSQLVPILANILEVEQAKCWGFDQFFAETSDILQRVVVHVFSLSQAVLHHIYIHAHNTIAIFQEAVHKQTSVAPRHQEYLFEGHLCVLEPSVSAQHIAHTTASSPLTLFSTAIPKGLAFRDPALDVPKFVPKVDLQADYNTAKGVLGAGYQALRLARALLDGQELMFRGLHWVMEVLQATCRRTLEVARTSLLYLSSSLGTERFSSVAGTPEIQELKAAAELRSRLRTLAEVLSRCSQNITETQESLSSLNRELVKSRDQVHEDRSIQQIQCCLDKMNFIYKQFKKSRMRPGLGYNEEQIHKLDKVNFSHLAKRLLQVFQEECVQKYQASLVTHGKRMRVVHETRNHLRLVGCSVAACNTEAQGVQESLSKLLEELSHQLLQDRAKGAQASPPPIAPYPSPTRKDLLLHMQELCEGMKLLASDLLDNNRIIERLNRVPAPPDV
The procedure: as §1

Test [7] deals with T7, PAK3 (Homo sapiens, UniProt O75914).
T7 construct: purchased ProQinase (Freiburg, Germany)
T7 sequence (O75914 whole entry): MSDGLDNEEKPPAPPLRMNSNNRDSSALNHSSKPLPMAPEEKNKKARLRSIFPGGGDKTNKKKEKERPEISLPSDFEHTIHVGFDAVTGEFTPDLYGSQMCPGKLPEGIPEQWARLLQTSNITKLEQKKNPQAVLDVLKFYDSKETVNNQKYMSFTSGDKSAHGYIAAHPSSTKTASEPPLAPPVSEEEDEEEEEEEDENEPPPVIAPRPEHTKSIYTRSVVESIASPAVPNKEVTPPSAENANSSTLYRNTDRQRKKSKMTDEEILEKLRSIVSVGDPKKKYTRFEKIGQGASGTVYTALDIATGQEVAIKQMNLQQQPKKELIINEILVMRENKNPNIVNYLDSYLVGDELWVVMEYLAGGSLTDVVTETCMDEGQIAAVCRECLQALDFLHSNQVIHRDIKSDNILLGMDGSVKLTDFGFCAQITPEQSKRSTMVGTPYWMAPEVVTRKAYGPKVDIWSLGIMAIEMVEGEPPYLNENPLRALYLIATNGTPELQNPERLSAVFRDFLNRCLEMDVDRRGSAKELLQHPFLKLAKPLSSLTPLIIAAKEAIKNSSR
On the procedure: as §1

For test [8], the target named is T8, PIM3 (Homo sapiens, UniProt Q86V86).
T8 construct: purchased ProQinase (Freiburg, Germany)
The procedure: as §1

In test [9] the target is T9, TBK1 (Homo sapiens, UniProt Q9UHD2).
T9 construct: purchased ProQinase (Freiburg, Germany)
T9 sequence (Q9UHD2 1-729): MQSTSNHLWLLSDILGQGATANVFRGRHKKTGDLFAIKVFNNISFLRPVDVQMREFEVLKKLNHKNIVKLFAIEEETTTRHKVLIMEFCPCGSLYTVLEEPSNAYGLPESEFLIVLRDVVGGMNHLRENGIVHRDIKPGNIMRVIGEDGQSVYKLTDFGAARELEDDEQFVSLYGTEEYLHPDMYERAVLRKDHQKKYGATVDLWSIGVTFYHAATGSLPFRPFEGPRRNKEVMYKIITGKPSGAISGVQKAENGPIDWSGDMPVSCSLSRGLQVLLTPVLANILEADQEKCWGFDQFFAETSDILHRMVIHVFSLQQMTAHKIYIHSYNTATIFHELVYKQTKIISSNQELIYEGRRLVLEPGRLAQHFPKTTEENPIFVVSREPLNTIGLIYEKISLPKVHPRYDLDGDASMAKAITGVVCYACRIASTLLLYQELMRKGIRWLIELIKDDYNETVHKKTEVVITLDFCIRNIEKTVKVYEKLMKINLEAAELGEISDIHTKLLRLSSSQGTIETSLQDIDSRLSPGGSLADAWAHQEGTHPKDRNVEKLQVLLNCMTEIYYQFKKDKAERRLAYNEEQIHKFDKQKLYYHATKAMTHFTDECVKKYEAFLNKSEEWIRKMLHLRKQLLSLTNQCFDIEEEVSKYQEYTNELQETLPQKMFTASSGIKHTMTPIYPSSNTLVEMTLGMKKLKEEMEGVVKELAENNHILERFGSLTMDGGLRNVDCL
On the procedure:
as §1

T1 sequence (Q00534 whole entry): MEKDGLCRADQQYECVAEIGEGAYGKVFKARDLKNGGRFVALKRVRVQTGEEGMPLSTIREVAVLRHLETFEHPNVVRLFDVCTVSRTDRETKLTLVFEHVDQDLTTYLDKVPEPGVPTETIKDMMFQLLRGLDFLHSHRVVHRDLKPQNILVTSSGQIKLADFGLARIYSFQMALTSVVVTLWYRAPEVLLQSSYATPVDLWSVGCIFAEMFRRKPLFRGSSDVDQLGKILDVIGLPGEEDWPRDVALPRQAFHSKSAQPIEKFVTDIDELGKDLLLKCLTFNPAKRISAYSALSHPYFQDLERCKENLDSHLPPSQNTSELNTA
T1 sequence (P24385 whole entry partner): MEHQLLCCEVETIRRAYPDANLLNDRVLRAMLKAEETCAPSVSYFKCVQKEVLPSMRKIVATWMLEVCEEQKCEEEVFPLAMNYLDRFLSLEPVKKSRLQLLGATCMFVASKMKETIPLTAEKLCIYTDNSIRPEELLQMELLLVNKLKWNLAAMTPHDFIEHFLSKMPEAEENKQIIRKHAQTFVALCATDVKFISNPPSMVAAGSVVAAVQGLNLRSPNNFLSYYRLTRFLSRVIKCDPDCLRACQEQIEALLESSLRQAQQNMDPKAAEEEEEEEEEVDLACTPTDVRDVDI

On to `O=C(Nc1ccc(F)c(Nc2ccc3c(c2)CCCCC3=O)c1)c1cccc(F)c1` [Compound 109], for which the Residual activity in [1] (1.0E-05 M) is 90 % of control; in test [1] (1.0E-06 M) it was 84 % of control; in [2] (1.0E-05 M), 70 % of control; in [2] (1.0E-06 M), 84 % of control; in [3] (1.0E-05 M), 107 % of control; in [3] (1.0E-06 M) it was 108 % of control. The Residual activity is given as 95 % of control in test [4] (1.0E-05 M); 113 % of control in test [4] (1.0E-06 M); 81 % of control in [5] (1.0E-05 M); 98 % of control in test [5] (1.0E-06 M); 92 % of control in [6] (1.0E-05 M); 95 % of control in test [6] (1.0E-06 M). The Residual activity is listed as 79 % of control in test [7] (1.0E-05 M); 92 % of control in [7] (1.0E-06 M); 102 % of control in test [8] (1.0E-05 M); 89 % of control in test [8] (1.0E-06 M); 93 % of control in [9] (1.0E-05 M); 93 % of control in test [9] (1.0E-06 M).
`O=C(Cc1ccccc1)Nc1ccc(F)c(Nc2ccc3c(c2)CCCCC3=O)c1` [Compound 100]: the Residual activity in test [1] (1.0E-05 M) is 89 % of control; in test [1] (1.0E-06 M) it was 93 % of control; in test [2] (1.0E-05 M), 114 % of control; in test [2] (1.0E-06 M) it was 104 % of control; in test [3] (1.0E-05 M), 119 % of control; in test [3] (1.0E-06 M) it was 105 % of control. Also, the Residual activity in [4] (1.0E-05 M) is 103 % of control; in test [4] (1.0E-06 M) it was 113 % of control; in [5] (1.0E-05 M) it was 71 % of control; in test [5] (1.0E-06 M) it was 97 % of control; in [6] (1.0E-05 M), 101 % of control; in [6] (1.0E-06 M) it was 103 % of control. In addition, the Residual activity is 74 % of control in [7] (1.0E-05 M); 88 % of control in [7] (1.0E-06 M); 89 % of control in test [8] (1.0E-05 M); 90 % of control in test [8] (1.0E-06 M); 101 % of control in test [9] (1.0E-05 M); 103 % of control in test [9] (1.0E-06 M).
